Patent US20160115540A1, “PRODRUGS AND DRUGS” (Biogen MA Inc., priority 2013, published 2016)
Where a name gives a salt, the structure may show the parent alone.

System: jejunum
Test: Transcriptional profiling on Affymetrix GeneChips, single dose, naïve mice: jejunum
Type: in vivo, C57BL/6 mice
Procedure: Treated mice were sacrificed at 2, 7, or 12 hours. Tissues (liver, spleen, kidney, jejunum, cortex, hippocampus, striatum and whole blood) were collected and analyzed by transcriptional profiling on mouse Affymetrix GeneChips.
Tissues (liver, spleen, kidney, jejunum, cortex, hippocampus, striatum and whole blood) were collected and analyzed by transcriptional profiling on mouse Affymetrix GeneChips.
Animals were exposed to CO2 and whole blood collected via cardiac puncture. Two 100 μl aliquots of whole blood were collected in 1.5 mL microcentrifuge tubes and snap frozen in liquid nitrogen. Peripheral (liver, spleen, kidney and jejunum) and CNS brain (cerebellum, hippocampus, striatum and cortex) tissues were harvested and snap frozen in liquid nitrogen, with special care taken to collect tissues of similar size and from the same location. All samples were stored at −80° C. until RNA extraction was conducted.
For RNA preparation, frozen tissues were placed in 2 mL RNAse-free 96-well blocks with 1.5 mL QIAzol Lysis Reagent (QIAgen) and a 3.2 mm stainless steel bead (BioSpec Products, Bartlesville, Okla.). Tissues were disrupted for four cycles of 45 seconds in a Mini-Beadbeater (Biospec Products). RNA was extracted in chloroform and the aqueous phase was mixed with an equal volume of 70% ethanol. Extracted RNA was applied to RNeasy 96 plates and purified by the spin method according to the manufacturer's protocol (RNeasy 96 Universal Tissue Protocol, QIAgen, Hilden Germany).
Automated sample amplifications and biotin labelings were carried out using the NuGEN Ovation RNA Amplification system V2 (Cat #3100), Ovation WB reagent (Cat #1300) and Encore Biotin module (Cat #4200) (NuGEN Technologies, Inc, San Carlos, Calif.) according to manufacturer's recommendations using an Arrayplex automated liquid handler (Beckman Coulter, Indianapolis, Ind.). Two micrograms of biotin labeled sscDNA probe were hybridized to Affymetrix GeneChip Affymetrix HT_MG-430_PM plate arrays with modified conditions as described in Allaire et al. Washing and staining of the hybridized arrays were completed as described in the GeneChip Expression analysis technical manual for HT plate arrays using the Genechip® Array Station (Affymetrix, Santa Clara, Calif.) with modifications as described in Allaire et al. The processed GeneChip® plate arrays were scanned using GeneTitan scanner (Affymetrix, Santa Clara, Calif.).
Affymetrix scans were subject to quality control (QC) measures. These tests included a visual inspection of the distribution of raw signal intensities and an assessment of RNA degradation, relative log expression (RLE), and normalized unsealed standard error (NUSE). All sample scans that passed these QC metrics were included in the analysis.
All CEL files were subjected to GC-content-based Robust Multi-array Average (GCRMA) normalization (version 2.20.0) (Irizarry R A, et al. Nucleic Acids Res 2003; 31:e15; Li C, et al. Genome Biol 2001; 2:[…]0032). Expression levels were log (base 2) transformed.
All calculations and analyses were carried out using R (version 2.11.1) and Bioconductor computational tools (Gentleman R. Springer Science+Business Media 2005).

**Q.** Which results are given for COC(=O)/C=C/C(=O)O [MMF, monomethyl fumarate]?
**A.** FC Akr1c12 (1422000_PM_at) (100MMF-vs-Veh, 12 h): 1.52; FC Akr1c13 (1418672_PM_at) (100MMF-vs-Veh, 12 h): 2.01; FC Aldh1a7 (1418601_PM_at) (100MMF-vs-Veh, 12 h): 1.74; FC Apob (1457554_PM_at) (100MMF-vs-Veh, 12 h): −1.54; FC C030026M15Rik (1431418_PM_at) (100MMF-vs-Veh, 12 h): −1.81; FC Dio1 (1417991_PM_at) (100MMF-vs-Veh, 12 h): −1.51; FC Ephx1 (1422438_PM_at) (100MMF-vs-Veh, 12 h): 2.17; FC Gss (1448273_PM_at) (100MMF-vs-Veh, 12 h): 1.57; FC Gstm1 (1416416_PM_x_at) (100MMF-vs-Veh, 12 h): 3.70; FC Gstm2 (1416411_PM_at) (100MMF-vs-Veh, 12 h): 2.20; FC Kif1b (1451642_PM_at) (100MMF-vs-Veh, 12 h): −1.51; Number of genes, DMF Only / MMF Only (Jejunum): 35; 6-Sep, septin 6 (1424181_PM_at) differential expression (Jejunum, 2 hr): 1.56; Areg (1421134_PM_at) differential expression (Jejunum, 2 hr): 2.71; Blvrb (1451386_PM_at) differential expression (Jejunum, 2 hr): 1.57; Bmp2 (1423635_PM_at) differential expression (Jejunum, 2 hr): −1.55; Cbr1 (1460196_PM_at) differential expression (Jejunum, 2 hr): 1.53; Dnase2a (1430135_PM_at) differential expression (Jejunum, 2 hr): 1.79; Dppa5a (1416552_PM_at) differential expression (Jejunum, 2 hr): 2.64; Ereg (1419431_PM_at) differential expression (Jejunum, 2 hr): 2.00; Ero1l (1419030_PM_at) differential expression (Jejunum, 2 hr): 1.90; Esd (1441604_PM_at) differential expression (Jejunum, 2 hr): 1.52; Figf (1438953_PM_at) differential expression (Jejunum, 2 hr): 1.63; G6pd2 /// G6pdx (1422327_PM_s_at) differential expression (Jejunum, 2 hr): 1.74; Gabarapl1 (1416418_PM_at) differential expression (Jejunum, 2 hr): 1.52; Gclc (1424296_PM_at) differential expression (Jejunum, 2 hr): 3.99; Gsr (1421816_PM_at) differential expression (Jejunum, 2 hr): 2.19; Gss (1441931_PM_x_at) differential expression (Jejunum, 2 hr): 1.92; Gsta3 (1423436_PM_at) differential expression (Jejunum, 2 hr): 3.64; Gsta4 (1416368_PM_at) differential expression (Jejunum, 2 hr): 1.73; Gstm1 (1416416_PM_x_at) differential expression (Jejunum, 2 hr): 2.38; Hfe (1422645_PM_at) differential expression (Jejunum, 2 hr): 1.73; Hmox1 (1448239_PM_at) differential expression (Jejunum, 2 hr): 1.81; Htatip2 (1451814_PM_a_at) differential expression (Jejunum, 2 hr): 1.53; Lpin2 (1452837_PM_at) differential expression (Jejunum, 2 hr): 1.61; Lrp8 (1440882_PM_at) differential expression (Jejunum, 2 hr): 2.23; Mafg (1448916_PM_at) differential expression (Jejunum, 2 hr): 1.95; Nqo1 (1423627_PM_at) differential expression (Jejunum, 2 hr): 2.16; Osgin1 (1424022_PM_at) differential expression (Jejunum, 2 hr): 1.98; Pgm2 (1437240_PM_at) differential expression (Jejunum, 2 hr): 2.09; Prr5l (1452834_PM_at) differential expression (Jejunum, 2 hr): −1.64; Prss8 (1418320_PM_at) differential expression (Jejunum, 2 hr): 2.41; Setd4 (1435405_PM_at) differential expression (Jejunum, 2 hr): 2.11; Slc2a1 (1426600_PM_at) differential expression (Jejunum, 2 hr): 1.68; Slc40a1 (1417061_PM_at) differential expression (Jejunum, 2 hr): 2.73; Slc48a1 (1450410_PM_a_at) differential expression (Jejunum, 2 hr): 1.62; Slfn2 (1450165_PM_at) differential expression (Jejunum, 2 hr): −1.82; Sos1 (1421886_PM_at) differential expression (Jejunum, 2 hr): −1.57; Srxn1 (1425351_PM_at) differential expression (Jejunum, 2 hr): 1.77; St3gal6 (1449078_PM_at) differential expression (Jejunum, 2 hr): 1.52; Tkt (1436605_PM_at) differential expression (Jejunum, 2 hr): 1.73; Tnfaip3 (1433699_PM_at) differential expression (Jejunum, 2 hr): −1.67; Tox3 (1436600_PM_at) differential expression (Jejunum, 2 hr): 1.81; Ugt2b5 (1419622_PM_at) differential expression (Jejunum, 2 hr): 3.13; Abcc2 (1450109_PM_s_at) differential expression (Jejunum, 7 hr): 1.51; Abcc3 (1428988_PM_at) differential expression (Jejunum, 7 hr): 2.26; Acsm5 (1437662_PM_at) differential expression (Jejunum, 7 hr): 1.71; Akr1c12 /// Akr1c13 (1450455_PM_s_at) differential expression (Jejunum, 7 hr): 1.58; Akr1c13 (1418672_PM_at) differential expression (Jejunum, 7 hr): 1.86; Aldh1a7 (1418601_PM_at) differential expression (Jejunum, 7 hr): 1.86; Areg (1421134_PM_at) differential expression (Jejunum, 7 hr): 2.93; Asns (1451095_PM_at) differential expression (Jejunum, 7 hr): 1.60; Blvrb (1451386_PM_at) differential expression (Jejunum, 7 hr): 1.55; Capn13 (1437960_PM_at) differential expression (Jejunum, 7 hr): −1.75; Cbr1 (1460196_PM_at) differential expression (Jejunum, 7 hr): 1.83; Ces1e (1419510_PM_at) differential expression (Jejunum, 7 hr): 2.44; Ddc (1426215_PM_at) differential expression (Jejunum, 7 hr): 2.03; Dppa5a (1416552_PM_at) differential expression (Jejunum, 7 hr): 1.88; Enkur (1428960_PM_at) differential expression (Jejunum, 7 hr): −1.56; Entpd5 (1433763_PM_at) differential expression (Jejunum, 7 hr): 1.60; Esd (1441604_PM_at) differential expression (Jejunum, 7 hr): 2.15; Fam162a (1451385_PM_at) differential expression (Jejunum, 7 hr): 1.67; G6pd2 /// G6pdx (1422327_PM_s_at) differential expression (Jejunum, 7 hr): 2.06; G6pdx (1448354_PM_at) differential expression (Jejunum, 7 hr): 1.76; Gclc (1424296_PM_at) differential expression (Jejunum, 7 hr): 2.87; Gm3776 /// Gsta1 /// Gsta2 (1421041_PM_s_at) differential expression (Jejunum, 7 hr): 1.90; Gm14446 (1435529_PM_at) differential expression (Jejunum, 7 hr): −1.65; Gpx2 (1449279_PM_at) differential expression (Jejunum, 7 hr): 1.53; Gsr (1421816_PM_at) differential expression (Jejunum, 7 hr): 3.13; Gss (1441931_PM_x_at) differential expression (Jejunum, 7 hr): 2.20; Gsta3 (1423436_PM_at) differential expression (Jejunum, 7 hr): 5.71; Gsta4 (1416368_PM_at) differential expression (Jejunum, 7 hr): 2.52; Gstm1 (1416416_PM_x_at) differential expression (Jejunum, 7 hr): 4.80; Gstm2 (1416411_PM_at) differential expression (Jejunum, 7 hr): 2.09; Gstm4 (1424835_PM_at) differential expression (Jejunum, 7 hr): 5.75; Gstm6 (1422072_PM_a_at) differential expression (Jejunum, 7 hr): 2.23
